Assays:
[1] = system: Acetobacter pasteurianus FERM BP-4176; test: Shape/length of cellulose-producing bacterium by optical microscope; assay type: cell-based
Protocol: (§1) Seed culture was carried out by placing 20 ml of the above culture medium in a 100 ml flask with baffle, inoculating Acetobacter pasteurianus FERM BP-4176, and then culturing at 25° C. for 3 days with stirring at 200 rpm. The culture medium was crushed by a blender, and added to a main culture medium having the above composition in a concentration of 2% seed culture.
(§2) The main culture was carried out by static culture at 25° C. During the culture, culture solution and bacterial cellulose were withdrawn, and the morphology of bacteria was observed by an optical microscope, an electron microscope and an atomic force microscope.
(§3) Six main culture media were used, and nalidixic acid (NA) was added thereto in a concentration of 0.01 mM, 0.05 mM, 0.1 mM, 0.2 mM or 1.0 mM except one medium to which NA was not added.
(§4) Acetobacter pasteurianus FERM BP-4176 was cultured in static culture, and the culture solution and bacterial cellulose were withdrawn, and the shape of bacteria was observed by the optical microscope, the electron microscope and the atomic force microscope, similar to Example 1, except that chloramphenicol was used instead of nalidixic acid.
That is, six main culture media having the aforementioned composition were used, and chloramphenicol (CP) was added thereto in a concentration of 0.1 mM, 0.2 mM, 0.3 mM, 0.5 mM or 1.0 mM except one medium to which CP was not added.
as §4, with “form” for “shape”
That is, four main culture media having the aforementioned composition were used, and dithiothreitol (DTT) was added thereto in a concentration of 0.5 mM, 1.0 mM or 2.0 mM except one medium to which DTT was not added.
as §4, with “in agitation culture at 180 rpm instead of” for “in”, “electro” for “electron”, “1.” for “1, except that chloramphenicol was used instead of nalidixic acid.”
That is, […] main culture media having the aforementioned composition were used, and nalidixic acid (NA) was added thereto in a concentration of 0.10 mM, or 0.20 mM, except one medium to which NA was not added.

[2] = system: Acetobacter pasteurianus FERM BP-4176; test: Production of bacterial cellulose in static culture; assay type: cell-based; conditions: NA 0.01 to 1.0 mM
Protocol: The culture medium used was composed of 50.0 g/l sucrose, 5.0 g/l “Total Amino Acid” (Ajinomoto Co., Inc.), 0.2 g/l phytic acid, 2.4 g/l magnesium sulfate and 1.0 g/l ammonium sulfate (pH 5.0).
as §1, §2, §3

Structure (SMILES) | length of the bacterium as fraction of the bacteria cultured in no DTT medium ([1]; 1.0 mM DTT, static culture 2 days) | change of length of the cellulose-producing bacterium with increasing concentration ([1]; static culture) | length of the cellulose-producing bacterium, up to, relative to bacteria cultured in no CP medium ([1]; CP 0.1 to 1.0 mM, static culture) [times] | lengthening of bacterium compared with no addition of NA ([1]; 0.1 mM NA, static culture 2 days) [times] | change of length of the cellulose-producing bacteria ([1]; agitation culture 180 rpm, 0.10 or 0.20 mM NA) | production of bacterial cellulose with increasing NA concentration [2]
O[C@H](CS)[C@H](O)CS (racemic) [DTT, dithiothreitol] | ⅓ to ½ | decreased |  |  |  | 
O=C(N[C@H](CO)[C@H](O)c1ccc([N+](=O)[O-])cc1)C(Cl)Cl [CP, chloramphenicol] |  | increased | 8 to 12 |  |  | 
CCn1cc(C(=O)O)c(=O)c2ccc(C)nc21 [NA, nalidixic acid] |  |  |  | 2 to 4 | increased | inhibited

— patent publication USRE38792E1, “Modified bacterial cellulose” (Ajinomoto Co., Ltd., priority 1996, dated 2005)
